Where two headings read alike, the source gives them in different places.
Columns and labels:
[1] = test system: human glioblastoma astrocytoma (U373) cells;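 further: Resazurin-to-resorufin fluorescence viability readout, 8 h compound exposure then medium change, light dose 3.1 J cm^−2 at 480 nm or 9.5 J cm^−2 at 540 nm, analysed 40 h later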
Description: (§1) A total of 4 × 10^3 cells were seeded on 96-well plates and allowed to adhere overnight. The cells were treated with increasing concentrations of the sample diluted in cell media achieving a total volume of 200 μL. The cells were incubated with the sample for 8 h and, after this time, the medium refreshed. To study the phototoxic effect of the sample, the cells were exposed to 480 nm (spectral half-width: 20 nm, 10 min, 5.2 mW cm^−2, 3.1 J cm^−2) or 540 nm (spectral half-width: 30 nm, 40 min, 4.0 mW cm^−2, 9.5 J cm^−2) light using an Atlas Photonics LUMOS BIO irradiator. To study the dark cytotoxicity of the sample, the cells were not irradiated and the medium exchanged. The cells were grown for an additional 40 h at 37 °C. After this time, the medium was replaced with fresh medium containing resazurin with a final concentration of 0.2 mg mL^−1. The cells were incubated for 4 h and the amount of the fluorescent product resorufin determined (λex = 540 nm, λem = 590 nm) with a SpectraMax M2 Microplate Reader (Molecular Devices). The obtained data was analyzed with the GraphPad Prism software.

[2] = test system: human cervical carcinoma (HeLa) cells; assay: (Photo-)cytotoxicity on 2D cell monolayers, HeLa; assay type: cell-based; settings: for IC50: 1-3 as chloride salts; for PI (480 nm): dark vs 480 nm; for PI (540 nm): dark vs 540 nm
Description: as §1

[3] = Two-photon absorption cross section; assay type: physicochemical; settings: dichloromethane
Description: The two-photon absorption cross section spectra of the sample was determined upon direction comparison to Rhodamine B. The sample was irradiated with an OpoletteTM 355II (pulse width ≤ 100 fs, 80 MHz repetition rate, Spectra Physics Inc.) laser. The experimental excitation and detection conditions were conducted with negligible reabsorption processes, which could affect two-photon absorption measurements. The quadratic dependence of the two-photon induced luminescence intensity on the excitation power was verified at an excitation wavelength of 800 nm. The two-photon absorption cross section was calculated using the following equation:1 σ2,sample=σ2,reference×Φreference×creference×Isample×nsample/Φsample×csample×Ireference×nreference,
σ2 = two-photon cross section, Φ = luminescence quantum yield, c = concentration, I = integrated luminescence intensity, n = refractive index

[4] = test system: noncancerous retinal pigment epithelium (RPE-1) cells
Description: as §1

[5] = test system: human glioblastoma astrocytoma (U373) cells; assay: (Photo-)cytotoxicity on 2D cell monolayers, U373; settings: for PI (480 nm): U373, dark vs 480 nm; for PI (540 nm): U373, dark vs 540 nm; for IC50: 1-3 as chloride salts;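 on all read-outs here: Resazurin-to-resorufin fluorescence viability readout, 8 h compound exposure then medium change, light dose 3.1 J cm^−2 at 480 nm or 9.5 J cm^−2 at 540 nm, analysed 40 h later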
Description: as §1

[6] = test system: noncancerous retinal pigment epithelium (RPE-1) cells; assay: (Photo-)cytotoxicity on 2D cell monolayers, RPE-1; settings: for PI (480 nm): RPE-1, dark vs 480 nm; for PI (540 nm): RPE-1, dark vs 540 nm; for IC50: 1-3 as chloride salts
Description: as §1

[7] = Emission and luminescence quantum yield; assay type: physicochemical; settings: acetonitrile
Description: The absorption spectra of the sample was measured with a SpectraMax M2 Spectrometer (Molecular Devices). For the measurements of the emission, the sample was irradiated at 355 nm with a NT342B Nd-YAG pumped optical parametric oscillator (Ekspla). The emission was focused at right angle to the excitation pathway and directed to a Princeton Instruments Acton SP-2300i monochromator. The signal was detected with a XPI-Max 4 CCD camera (Princeton Instruments).
The sample was prepared in an acetonitrile solution with an absorption of 0.1 at 355 nm. The sample was irradiated at 355 nm with a NT342B Nd-YAG pumped optical parametric oscillator (Ekspla). The emission was focused at right angle to the excitation pathway and directed to a Princeton Instruments Acton SP-2300i monochromator. The signal was detected with a XPI-Max 4 CCD camera (Princeton Instruments). The luminescence quantum yields were determined by comparison with the reference [Ru(2,2′-bipyridine)3]Cl2 in acetonitrile (Φem = 5.9%)[58] applying the following formula:2 Φem,sample=Φem,reference×Freference/Fsample×Isample/Ireference×nsample/nreference^2, 3 F=1−10^-A. Φem = luminescence quantum yield, F = fraction of light absorbed, I = integrated emission intensities, n = refractive index, A = absorbance of the sample at irradiation wavelength.

Excited state lifetime = assay type: physicochemical; settings: for τ air, excited state lifetime: air saturated acetonitrile; for τ degassed, excited state lifetime: degassed acetonitrile
Description: The sample was prepared in an air saturated as well as a degassed acetonitrile solution with an absorption of 0.2 at 355 nm. The sample was irradiated at 355 nm with a NT342B Nd-YAG pumped optical parametric oscillator (Ekspla). The emission was focused at right angle to the excitation pathway and directed to a Princeton Instruments Acton SP-2300i monochromator. The signal was detected with a R928 photomultiplier tube (Hamamatsu).

[8] = Singlet oxygen quantum yield, indirect evaluation (1O2 scavenger absorbance); assay type: physicochemical
Description: Indirect evaluation: measurement in acetonitrile: the sample was prepared in an air-saturated acetonitrile solution with an absorption of 0.2 at the irradiation wavelength, N,N-dimethyl-4-nitrosoaniline aniline (RNO, 24 µM) and imidazole (12 mM). Measurement in PBS buffer: the sample was prepared in an air-saturated PBS solution containing the complex with an absorption of 0.2 at the irradiation wavelength, N,N-dimethyl-4-nitrosoaniline aniline (RNO, 20 µM) and histidine (10 mM). The samples were irradiated for various time points with an Atlas Photonics LUMOS BIO irradiator. The absorption of the samples was constantly monitored with a SpectraMax M2 Microplate Reader (Molecular Devices). The difference in absorption (A0 − A) at 420 nm for the measurement in acetonitrile or at 440 nm for the measurement in PBS was determined. The difference in absorption was then plotted against the irradiation times and the slope of the linear regression calculated. The absorption of the sample was corrected with an absorption correction factor. The singlet oxygen quantum yields were calculated using the same formulas as used for the direct evaluation.

[9] = Singlet oxygen quantum yield, direct evaluation (1O2 phosphorescence); assay type: physicochemical
Description: Direct evaluation: the sample was prepared in an air-saturated acetonitrile or deuterated water solution with an absorption of 0.2 at 450 nm. The sample was irradiated at 450 nm with a mounted M450LP1 LED (Thorlabs), whose light was focused with aspheric condenser lenses. Using a T-Cube LED Driver (Thorlabs), the intensity of the irradiation was varied and monitored with an optical power and energy meter. The emission was focused at right angle to the excitation pathway and directed to a Princeton Instruments Acton SP-2300i monochromator. To cut off light at wavelengths shorter than 850 nm, a longpass glass filter was placed in front of the monochromator entrance slit. The signal was detected with an EO-817L IR-sensitive liquid-nitrogen cooled germanium diode detector (North Coast Scientific Corp.). The luminescence signal, centered at 1270 nm, was measured from 1100 to 1400 nm. The obtained data were analyzed upon plotting the integrated luminescence peaks against the percentage of the irradiation intensity. The slope of the linear regression was calculated and compared with the reference Rose Bengal (Φ = 76%)[59]. The absorption of the sample was corrected with an absorption correction factor. The singlet oxygen quantum yields were calculated using the following formula:4 Φsample=Φreference×Ssample/Sreference×Ireference/Isample, 5 I=I0×1−10^-A.
Φ = singlet oxygen quantum yield, S = slope of the linear regression of the plot of the areas of the singlet oxygen luminescence peaks against the irradiation intensity, I = absorption correction factor, I0 = light intensity of the irradiation source, and A = absorption of the sample at irradiation wavelength.

[10] = 480 nm, read-out: IC50 480 nm (10 min, 3.1 J cm-2)
[11] = 540 nm, read-out: IC50 540 nm (40 min, 9.5 J cm-2)
[12] = read-out: IC50 480 nm (10 min, 3.1 J cm-2), U373, 480 nm
[13] = read-out: IC50 dark, U373, dark
[14] = read-out: IC50 540 nm (40 min, 9.5 J cm-2), RPE-1, 540 nm
[15] = read-out: IC50 dark, RPE-1, dark

Row | SMILES | IC50 [1] | IC50 [2, 10] | IC50 [2, 11] | PI (480 nm) [2] | PI (540 nm) [2] | IC50 ([2]; dark, read-out: IC50 dark) | IC50 [4] | PI (480 nm) [5] | PI (540 nm) [5] | IC50 [5, 12] | IC50 [5, 13] | PI (480 nm) [6] | PI (540 nm) [6] | IC50 [6, 14] | IC50 [6, 15] | Φem, luminescence quantum yield [7] | λem, emission maximum [7] | τ air, excited state lifetime (Excited state lifetime) | τ degassed, excited state lifetime (Excited state lifetime) | Singlet oxygen quantum yield, Indirect 450 nm CH3CN [8] | also measured
1 | COc1ccc(/C=C/c2ccnc(-c3cc(/C=C/c4ccc(OC)cc4)ccn3)c2)cc1.COc1ccc(/C=C/c2ccnc(-c3cc(/C=C/c4ccc(OC)cc4)ccn3)c2)cc1.COc1ccc(/C=C/c2ccnc(-c3cc(/C=C/c4ccc(OC)cc4)ccn3)c2)cc1.F[P-](F)(F)(F)(F)F.F[P-](F)(F)(F)(F)F.[Ru+2] [compound 3, [Ru((E,E′)-4,4′-Bis[p-methoxystyryl]-2,2′-bipyridine)3][PF6]2] | 51.3 µM | 15.3 µM | 11.3 µM | > 6.5 | > 8.8 | > 100 µM | 53.6 µM | > 2.4 | > 1.9 | 41 µM | > 100 µM | > 1.9 | > 2.2 | 44.9 µM | > 100 µM | 1.1% | 682 nm | 76 ns | 338 ns | 48% | σ2, 2P absorption cross section [3]: 573 GM; Singlet oxygen quantum yield, Indirect 450 nm PBS [8]: 6%; Singlet oxygen quantum yield, Indirect 540 nm CH3CN [8]: 49%; Singlet oxygen quantum yield, Indirect 540 nm PBS [8]: 5%; Singlet oxygen quantum yield, Direct 450 nm CH3CN [9]: 52%
2 | COc1ccc(/C=C/c2ccnc(-c3cc(/C=C/c4ccc(OC)cc4)ccn3)c2)cc1.F[P-](F)(F)(F)(F)F.F[P-](F)(F)(F)(F)F.[Ru+2].c1ccc(-c2ccccn2)nc1.c1ccc(-c2ccccn2)nc1 [compound 7, [Ru(2,2′-bipyridine)2((E,E′)-4,4′-Bis[p-methoxystyryl]-2,2′-bipyridine)][PF6]2] | 13.5 µM | 1.2 µM | 1.5 µM | > 83.3 | > 66.7 | > 100 µM | 3.1 µM | > 9.5 | > 7.4 | 10.5 µM | > 100 µM | > 32.3 | > 11.9 | 8.4 µM | > 100 µM | 2.8% | 664 nm | 96 ns | 542 ns | 77% | Singlet oxygen quantum yield, Indirect 450 nm PBS [8]: 11%; Singlet oxygen quantum yield, Indirect 540 nm CH3CN [8]: 68%; Singlet oxygen quantum yield, Indirect 540 nm PBS [8]: 10%; Singlet oxygen quantum yield in acetonitrile (range over methods and wavelengths) ([8]; acetonitrile, 450 and 540 nm, direct and indirect): 68–77%; Singlet oxygen quantum yield in aqueous solution (range over wavelengths) ([8]; aqueous solution, 450 and 540 nm): 10–11%; Singlet oxygen quantum yield, Direct 450 nm CH3CN [9]: 75%
